How the values were obtained:
Test in all cases: Radioligand binding assay
[1] = molecular target: T1, Alpha1A (alpha adrenergic receptor) (Homo sapiens, UniProt P35348); details: 10 µM; HEK membrane fractions; quadruplicate
T1 construct: purchased NIMH Psychoactive Drug Screening Program (PDSP)
Experimental: (§1) Radioligand binding assays were performed as previously described. Briefly, crude membrane fractions prepared from a stable HEK cell line expressing recombinant receptors were mixed with a radiolabeled specific ligand and 10 µM of competitor compound (DHCA, Mal-gluc, or non-specific ligand). The percentage of radioligand binding was subsequently measured.

[2] = molecular target: T2, 5-HT2A (serotonin receptor) (Homo sapiens, UniProt P28223); details: 10 µM; HEK membrane fractions; quadruplicate
T2 construct: purchased NIMH Psychoactive Drug Screening Program (PDSP)
T2 sequence (P28223 whole entry): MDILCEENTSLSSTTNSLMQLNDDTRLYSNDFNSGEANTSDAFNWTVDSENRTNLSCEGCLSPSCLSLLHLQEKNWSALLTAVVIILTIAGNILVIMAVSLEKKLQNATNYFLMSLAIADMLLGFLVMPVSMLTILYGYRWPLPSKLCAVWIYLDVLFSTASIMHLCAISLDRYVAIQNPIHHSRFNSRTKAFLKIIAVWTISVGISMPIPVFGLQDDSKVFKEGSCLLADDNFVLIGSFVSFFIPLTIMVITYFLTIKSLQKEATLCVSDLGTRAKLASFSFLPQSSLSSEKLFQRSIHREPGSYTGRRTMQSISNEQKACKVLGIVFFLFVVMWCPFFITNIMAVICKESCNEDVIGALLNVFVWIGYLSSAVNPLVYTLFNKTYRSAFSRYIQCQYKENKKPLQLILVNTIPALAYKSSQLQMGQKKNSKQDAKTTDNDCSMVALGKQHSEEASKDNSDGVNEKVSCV
Experimental: as §1

M5 (muscarinic receptor) = molecular target: T3, M5 (muscarinic receptor) (Homo sapiens, UniProt P08912); details: 10 µM; HEK membrane fractions; quadruplicate
T3 construct: purchased NIMH Psychoactive Drug Screening Program (PDSP)
Experimental: as §1

[3] = system: BZP RBS (rat brain benzylpiperazine site); details: 10 µM; quadruplicate
Experimental: as §1

M4 (muscarinic receptor) = molecular target: T4, M4 (muscarinic receptor) (Homo sapiens, UniProt P08173); details: 10 µM; HEK membrane fractions; quadruplicate
T4 construct: purchased NIMH Psychoactive Drug Screening Program (PDSP)
T4 sequence (P08173 whole entry): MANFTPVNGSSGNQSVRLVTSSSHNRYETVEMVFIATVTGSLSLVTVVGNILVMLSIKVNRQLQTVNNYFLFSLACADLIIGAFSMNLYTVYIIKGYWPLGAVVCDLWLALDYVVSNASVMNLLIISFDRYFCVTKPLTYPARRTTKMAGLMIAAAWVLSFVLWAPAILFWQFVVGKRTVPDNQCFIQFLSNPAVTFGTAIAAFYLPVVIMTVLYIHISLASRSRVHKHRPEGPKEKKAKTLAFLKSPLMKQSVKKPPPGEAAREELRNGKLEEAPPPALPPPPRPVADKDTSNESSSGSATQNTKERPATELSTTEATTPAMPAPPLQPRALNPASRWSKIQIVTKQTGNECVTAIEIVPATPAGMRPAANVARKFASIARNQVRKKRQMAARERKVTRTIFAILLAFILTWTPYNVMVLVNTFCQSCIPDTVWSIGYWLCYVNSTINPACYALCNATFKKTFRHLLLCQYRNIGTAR
Experimental: as §1

[4] = molecular target: T5, Alpha2B (alpha adrenergic receptor) (Homo sapiens, UniProt P18089); details: 10 µM; HEK membrane fractions; quadruplicate
T5 construct: purchased NIMH Psychoactive Drug Screening Program (PDSP)
Experimental: as §1

D2 (dopamine receptor) = molecular target: T6, D2 (dopamine receptor) (Homo sapiens, UniProt P14416); details: 10 µM; HEK membrane fractions; quadruplicate
T6 construct: purchased NIMH Psychoactive Drug Screening Program (PDSP)
Experimental: as §1

[5] = molecular target: T7, Alpha1B (alpha adrenergic receptor) (Homo sapiens, UniProt P35368); details: 10 µM; HEK membrane fractions; quadruplicate
T7 construct: purchased NIMH Psychoactive Drug Screening Program (PDSP)
Experimental: as §1

[6] = molecular target: T8, Alpha1D (alpha adrenergic receptor) (Homo sapiens, UniProt P25100); details: 10 µM; HEK membrane fractions; quadruplicate
T8 construct: purchased NIMH Psychoactive Drug Screening Program (PDSP)
Experimental: as §1

D1 (dopamine receptor) = molecular target: T9, D1 (dopamine receptor) (Homo sapiens, UniProt P21728); details: 10 µM; HEK membrane fractions; quadruplicate
T9 construct: purchased NIMH Psychoactive Drug Screening Program (PDSP)
T9 sequence (P21728 whole entry): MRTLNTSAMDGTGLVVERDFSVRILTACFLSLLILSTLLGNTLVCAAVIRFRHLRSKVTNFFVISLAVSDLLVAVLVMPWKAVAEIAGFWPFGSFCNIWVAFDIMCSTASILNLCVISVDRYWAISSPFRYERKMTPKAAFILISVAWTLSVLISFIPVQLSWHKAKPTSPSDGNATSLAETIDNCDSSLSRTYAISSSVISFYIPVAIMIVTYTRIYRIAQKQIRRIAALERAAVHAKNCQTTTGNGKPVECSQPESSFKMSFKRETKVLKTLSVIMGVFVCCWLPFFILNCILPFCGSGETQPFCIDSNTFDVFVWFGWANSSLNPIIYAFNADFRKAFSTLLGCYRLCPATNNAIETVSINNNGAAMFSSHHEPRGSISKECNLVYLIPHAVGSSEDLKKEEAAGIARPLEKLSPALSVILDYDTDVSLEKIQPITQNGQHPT
Experimental: as §1

M1 (muscarinic receptor) = molecular target: T10, M1 (muscarinic receptor) (Homo sapiens, UniProt P11229); details: 10 µM; HEK membrane fractions; quadruplicate
T10 construct: purchased NIMH Psychoactive Drug Screening Program (PDSP)
Experimental: as §1

[7] = molecular target: T11, 5-HT1D (serotonin receptor) (Homo sapiens, UniProt P28221); details: for Binding activity, 5-HT1D (percentage): 10 µM, HEK membrane fractions, quadruplicate
T11 construct: expressed in transfected cells; crude membrane fractions
T11 sequence (P28221 whole entry, species assumed): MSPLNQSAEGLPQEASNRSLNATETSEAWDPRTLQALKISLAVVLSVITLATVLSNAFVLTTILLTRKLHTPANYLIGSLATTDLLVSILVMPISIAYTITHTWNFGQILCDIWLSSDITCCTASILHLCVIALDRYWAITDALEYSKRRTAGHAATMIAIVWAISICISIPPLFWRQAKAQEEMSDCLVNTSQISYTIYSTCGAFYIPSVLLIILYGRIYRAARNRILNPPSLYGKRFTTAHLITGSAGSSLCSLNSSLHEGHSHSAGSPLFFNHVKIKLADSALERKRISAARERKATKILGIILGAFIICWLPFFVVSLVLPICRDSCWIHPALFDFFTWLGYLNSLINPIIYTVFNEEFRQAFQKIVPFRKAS
Experimental: as §1

[8] = molecular target: T12, 5-HT1A (serotonin receptor) (Homo sapiens, UniProt P08908); details: 10 µM; HEK membrane fractions; quadruplicate
T12 construct: purchased NIMH Psychoactive Drug Screening Program (PDSP)
T12 sequence (P08908 whole entry): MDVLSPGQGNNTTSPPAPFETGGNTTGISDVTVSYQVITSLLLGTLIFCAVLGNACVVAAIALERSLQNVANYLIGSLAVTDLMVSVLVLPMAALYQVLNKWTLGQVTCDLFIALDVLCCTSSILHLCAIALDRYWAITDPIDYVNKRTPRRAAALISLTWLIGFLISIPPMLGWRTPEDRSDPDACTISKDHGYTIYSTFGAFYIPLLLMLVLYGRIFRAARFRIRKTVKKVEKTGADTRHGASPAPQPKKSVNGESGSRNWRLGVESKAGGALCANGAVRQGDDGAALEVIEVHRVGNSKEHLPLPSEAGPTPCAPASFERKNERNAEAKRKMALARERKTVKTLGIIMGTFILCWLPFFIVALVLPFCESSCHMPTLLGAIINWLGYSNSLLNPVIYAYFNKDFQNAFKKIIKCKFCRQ
Experimental: as §1

[9] = molecular target: T13, 5-HT1B (serotonin receptor) (Homo sapiens, UniProt P28222); details: 10 µM; HEK membrane fractions; quadruplicate
T13 construct: purchased NIMH Psychoactive Drug Screening Program (PDSP)
Experimental: as §1

[10] = system: PBR (peripheral benzodiazepine receptor); details: 10 µM; HEK membrane fractions; quadruplicate
Experimental: as §1

[11] = molecular target: T14, 5-hT1e (serotonin receptor) (Homo sapiens, UniProt P28566); details: 10 µM; HEK membrane fractions; quadruplicate
T14 construct: purchased NIMH Psychoactive Drug Screening Program (PDSP)
T14 sequence (P28566 whole entry): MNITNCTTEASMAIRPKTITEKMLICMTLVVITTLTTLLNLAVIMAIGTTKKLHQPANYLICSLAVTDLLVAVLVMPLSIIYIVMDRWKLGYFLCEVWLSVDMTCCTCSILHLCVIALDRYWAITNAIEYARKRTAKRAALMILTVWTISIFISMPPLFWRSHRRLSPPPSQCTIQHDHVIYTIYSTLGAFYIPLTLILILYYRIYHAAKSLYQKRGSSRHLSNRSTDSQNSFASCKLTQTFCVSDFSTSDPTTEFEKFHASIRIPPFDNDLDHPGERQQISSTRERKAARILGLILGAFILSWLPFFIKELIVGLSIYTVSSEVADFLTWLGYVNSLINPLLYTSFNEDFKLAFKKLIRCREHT
Experimental: as §1

[12] = molecular target: T15, 5-HT2C (serotonin receptor) (Homo sapiens, UniProt P28335); details: 10 µM; HEK membrane fractions; quadruplicate
T15 construct: purchased NIMH Psychoactive Drug Screening Program (PDSP)
Experimental: as §1

[13] = molecular target: T16, 5-HT3 (serotonin receptor) (Homo sapiens, UniProt P46098); details: for Binding activity, 5-HT3 (percentage): 10 µM, HEK membrane fractions, quadruplicate
T16 construct: expressed in transfected cells; crude membrane fractions
T16 sequence (P46098 24-478): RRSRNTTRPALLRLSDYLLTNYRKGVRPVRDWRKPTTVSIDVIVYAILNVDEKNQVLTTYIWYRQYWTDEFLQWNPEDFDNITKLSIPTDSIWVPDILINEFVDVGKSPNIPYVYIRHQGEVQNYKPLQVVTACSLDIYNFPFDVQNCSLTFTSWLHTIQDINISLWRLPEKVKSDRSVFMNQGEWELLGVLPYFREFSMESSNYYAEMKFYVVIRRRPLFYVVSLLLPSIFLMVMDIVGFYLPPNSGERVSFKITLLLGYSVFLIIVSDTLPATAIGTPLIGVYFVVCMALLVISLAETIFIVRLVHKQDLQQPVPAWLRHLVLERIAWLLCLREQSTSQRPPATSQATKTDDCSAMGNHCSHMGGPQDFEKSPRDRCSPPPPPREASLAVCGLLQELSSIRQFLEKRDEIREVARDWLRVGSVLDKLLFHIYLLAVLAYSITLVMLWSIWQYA
Experimental: as §1

[14] = molecular target: T17, 5-hT5a (serotonin receptor) (Homo sapiens, UniProt P47898); details: 10 µM; HEK membrane fractions; quadruplicate
T17 construct: purchased NIMH Psychoactive Drug Screening Program (PDSP)
Experimental: as §1

D4 (dopamine receptor) = molecular target: T18, D4 (dopamine receptor) (Homo sapiens, UniProt P21917); details: 10 µM; HEK membrane fractions; quadruplicate
T18 construct: purchased NIMH Psychoactive Drug Screening Program (PDSP)
T18 sequence (P21917 whole entry): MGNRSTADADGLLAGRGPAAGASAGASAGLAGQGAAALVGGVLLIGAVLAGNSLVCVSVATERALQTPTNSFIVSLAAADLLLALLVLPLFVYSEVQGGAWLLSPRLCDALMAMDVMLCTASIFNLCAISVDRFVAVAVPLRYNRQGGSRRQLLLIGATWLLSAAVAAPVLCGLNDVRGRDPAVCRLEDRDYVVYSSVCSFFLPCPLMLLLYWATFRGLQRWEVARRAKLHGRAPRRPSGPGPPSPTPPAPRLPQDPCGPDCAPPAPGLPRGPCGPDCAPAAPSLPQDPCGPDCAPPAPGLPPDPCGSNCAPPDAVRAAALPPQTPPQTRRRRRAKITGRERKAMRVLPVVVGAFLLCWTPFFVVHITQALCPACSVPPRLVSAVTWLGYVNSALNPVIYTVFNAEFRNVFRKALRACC
Experimental: as §1

[15] = molecular target: T19, Alpha2A (alpha adrenergic receptor) (Homo sapiens, UniProt P08913); details: 10 µM; HEK membrane fractions; quadruplicate
T19 construct: purchased NIMH Psychoactive Drug Screening Program (PDSP)
Experimental: as §1

[16] = molecular target: T20, 5-HT2B (serotonin receptor) (Homo sapiens, UniProt P41595); details: 10 µM; HEK membrane fractions; quadruplicate
T20 construct: purchased NIMH Psychoactive Drug Screening Program (PDSP)
T20 sequence (P41595 whole entry): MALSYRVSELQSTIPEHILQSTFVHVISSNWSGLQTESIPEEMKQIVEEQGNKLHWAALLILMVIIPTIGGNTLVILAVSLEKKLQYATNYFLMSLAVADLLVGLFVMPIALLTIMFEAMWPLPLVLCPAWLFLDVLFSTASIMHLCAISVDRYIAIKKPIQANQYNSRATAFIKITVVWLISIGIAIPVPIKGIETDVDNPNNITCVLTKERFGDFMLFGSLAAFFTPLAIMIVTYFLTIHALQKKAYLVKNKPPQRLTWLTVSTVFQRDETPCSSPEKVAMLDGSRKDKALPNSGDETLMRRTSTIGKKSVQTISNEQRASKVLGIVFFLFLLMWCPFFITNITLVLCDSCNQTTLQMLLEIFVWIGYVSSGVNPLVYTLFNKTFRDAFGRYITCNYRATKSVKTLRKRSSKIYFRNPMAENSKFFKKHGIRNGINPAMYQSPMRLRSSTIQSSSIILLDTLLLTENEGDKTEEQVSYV
Experimental: as §1

M3 (muscarinic receptor) = molecular target: T21, M3 (muscarinic receptor) (Homo sapiens, UniProt P20309); details: 10 µM; HEK membrane fractions; quadruplicate
T21 construct: purchased NIMH Psychoactive Drug Screening Program (PDSP)
Experimental: as §1

[17] = molecular target: T22, 5-HT7 (serotonin receptor) (Homo sapiens, UniProt P34969); details: 10 µM; HEK membrane fractions; quadruplicate
T22 construct: purchased NIMH Psychoactive Drug Screening Program (PDSP)
Experimental: as §1

D5 (dopamine receptor) = molecular target: T23, D5 (dopamine receptor) (Homo sapiens, UniProt P21918); details: 10 µM; HEK membrane fractions; quadruplicate
T23 construct: purchased NIMH Psychoactive Drug Screening Program (PDSP)
T23 sequence (P21918 whole entry): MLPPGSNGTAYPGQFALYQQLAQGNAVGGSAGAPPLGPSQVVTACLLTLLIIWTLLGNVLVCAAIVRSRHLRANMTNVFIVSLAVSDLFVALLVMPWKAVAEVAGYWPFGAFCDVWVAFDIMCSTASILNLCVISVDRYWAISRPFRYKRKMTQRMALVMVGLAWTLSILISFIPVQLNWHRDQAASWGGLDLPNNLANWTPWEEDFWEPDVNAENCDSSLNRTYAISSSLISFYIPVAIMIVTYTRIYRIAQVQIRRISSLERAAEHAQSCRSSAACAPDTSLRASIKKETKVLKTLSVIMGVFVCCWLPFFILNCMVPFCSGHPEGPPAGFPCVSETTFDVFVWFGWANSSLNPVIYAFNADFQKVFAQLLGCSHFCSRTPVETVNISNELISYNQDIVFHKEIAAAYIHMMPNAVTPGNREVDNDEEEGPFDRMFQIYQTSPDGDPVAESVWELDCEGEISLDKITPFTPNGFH
Experimental: as §1

[18] = molecular target: T24, Alpha2C (alpha adrenergic receptor) (Homo sapiens, UniProt P18825); details: 10 µM; HEK membrane fractions; quadruplicate
T24 construct: purchased NIMH Psychoactive Drug Screening Program (PDSP)
Experimental: as §1

[19] = molecular target: T25, Beta2 (beta adrenergic receptor) (Homo sapiens, UniProt P07550); details: 10 µM; HEK membrane fractions; quadruplicate
T25 construct: purchased NIMH Psychoactive Drug Screening Program (PDSP)
T25 sequence (P07550 whole entry): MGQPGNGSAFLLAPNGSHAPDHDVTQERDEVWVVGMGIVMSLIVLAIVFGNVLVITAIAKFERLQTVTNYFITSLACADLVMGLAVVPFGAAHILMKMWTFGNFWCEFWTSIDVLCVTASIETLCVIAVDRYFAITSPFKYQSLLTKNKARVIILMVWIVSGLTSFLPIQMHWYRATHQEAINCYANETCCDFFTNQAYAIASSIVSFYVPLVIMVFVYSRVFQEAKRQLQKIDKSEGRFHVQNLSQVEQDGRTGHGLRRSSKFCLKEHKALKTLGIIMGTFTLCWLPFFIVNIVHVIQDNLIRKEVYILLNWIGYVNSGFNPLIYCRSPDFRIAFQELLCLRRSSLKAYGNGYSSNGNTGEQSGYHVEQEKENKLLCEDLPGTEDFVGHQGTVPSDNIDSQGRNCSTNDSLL
Experimental: as §1

[20] = molecular target: T26, DAT (dopamine transporter) (Homo sapiens, UniProt Q01959); details: 10 µM; HEK membrane fractions; quadruplicate
T26 construct: purchased NIMH Psychoactive Drug Screening Program (PDSP)
Experimental: as §1

[21] = molecular target: T27, SERT (serotonin transporter) (Homo sapiens, UniProt P31645); details: 10 µM; HEK membrane fractions; quadruplicate
T27 construct: purchased NIMH Psychoactive Drug Screening Program (PDSP)
Experimental: as §1

MOR (µ-opioid receptor) = molecular target: T28, MOR (µ-opioid receptor) (Homo sapiens, UniProt P35372); details: 10 µM; HEK membrane fractions; quadruplicate
T28 construct: purchased NIMH Psychoactive Drug Screening Program (PDSP)
Experimental: as §1

[22] = molecular target: T29, NET (norepinephrine transporter) (Homo sapiens, UniProt P23975); details: 10 µM; HEK membrane fractions; quadruplicate
T29 construct: purchased NIMH Psychoactive Drug Screening Program (PDSP)
Experimental: as §1

DOR (δ-opioid receptor) = molecular target: T30, DOR (δ-opioid receptor) (Homo sapiens, UniProt P41143); details: 10 µM; HEK membrane fractions; quadruplicate
T30 construct: purchased NIMH Psychoactive Drug Screening Program (PDSP)
Experimental: as §1

[23] = molecular target: T31, Beta3 (beta adrenergic receptor) (Homo sapiens, UniProt P13945); details: 10 µM; HEK membrane fractions; quadruplicate
T31 construct: purchased NIMH Psychoactive Drug Screening Program (PDSP)
Experimental: as §1

[24] = molecular target: T32, Beta1 (beta adrenergic receptor) (Homo sapiens, UniProt P08588); details: 10 µM; HEK membrane fractions; quadruplicate
T32 construct: purchased NIMH Psychoactive Drug Screening Program (PDSP)
Experimental: as §1

T1 sequence (P35348 whole entry): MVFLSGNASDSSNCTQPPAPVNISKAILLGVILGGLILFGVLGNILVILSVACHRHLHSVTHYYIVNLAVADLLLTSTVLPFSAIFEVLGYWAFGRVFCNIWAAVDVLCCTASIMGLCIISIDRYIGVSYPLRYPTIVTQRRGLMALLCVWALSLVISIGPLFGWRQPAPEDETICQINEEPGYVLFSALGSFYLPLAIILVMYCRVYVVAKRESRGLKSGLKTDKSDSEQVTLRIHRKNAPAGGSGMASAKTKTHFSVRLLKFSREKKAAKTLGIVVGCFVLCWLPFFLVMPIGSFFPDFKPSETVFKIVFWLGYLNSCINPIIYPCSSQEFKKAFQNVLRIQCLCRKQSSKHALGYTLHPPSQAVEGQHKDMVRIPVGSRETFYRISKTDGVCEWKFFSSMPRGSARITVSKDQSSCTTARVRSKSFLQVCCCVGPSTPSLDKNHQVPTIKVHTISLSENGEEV

Compound | Binding activity, Alpha1A (percentage) [1] [%] | Binding activity, 5-HT2A (percentage) [2] [%] | Binding activity, M5 (percentage) (M5 (muscarinic receptor)) [%] | Binding activity, BZP RBS (percentage) [3] [%] | Binding activity, M4 (percentage) (M4 (muscarinic receptor)) [%] | Binding activity, Alpha2B (percentage) [4] [%] | Binding activity, D2 (percentage) (D2 (dopamine receptor)) [%] | Binding activity, Alpha1B (percentage) [5] [%] | Binding activity, Alpha1D (percentage) [6] [%] | Binding activity, D1 (percentage) (D1 (dopamine receptor)) [%] | Binding activity, M1 (percentage) (M1 (muscarinic receptor)) [%] | Binding activity, 5-HT1D (percentage) [7] [%] | Binding activity, 5-HT1A (percentage) [8] [%] | Binding activity, 5-HT1B (percentage) [9] [%] | Binding activity, PBR (percentage) [10] [%] | Binding activity, 5-hT1e (percentage) [11] [%] | Binding activity, 5-HT2C (percentage) [12] [%] | Binding activity, 5-HT3 (percentage) [13] [%] | Binding activity, 5-hT5a (percentage) [14] [%] | Binding activity, D4 (percentage) (D4 (dopamine receptor)) [%] | also measured
O=C(O)CCc1ccc(O)c(O)c1 [DHCA, 3(3,4-dihydroxy-phenyl) propionic acid] | 4 | 18 | 21.2 | −5.2 | 3 | −2.3 | −5.7 | 11.1 | −15.4 | −3.7 | −1.8 | 11.7 | 3.3 | −11.8 | −13.3 | −1.7 | −9.9 | −11.7 | 4.2 | 1.9 | Binding activity, Alpha2A (percentage) [15]: 15.7%; Binding activity, 5-HT2B (percentage) [16]: −7%; Binding activity, M3 (percentage) (M3 (muscarinic receptor)): 9.4%; Binding activity, 5-HT7 (percentage) [17]: 4.2%; Binding activity, D5 (percentage) (D5 (dopamine receptor)): 5.1%; Binding activity, Alpha2C (percentage) [18]: 27.3%; Binding activity, Beta2 (percentage) [19]: −7.6%; Binding activity, DAT (percentage) [20]: 34.5%; Binding activity, SERT (percentage) [21]: −0.9%; Binding activity, MOR (percentage) (MOR (µ-opioid receptor)): −7.1%; Binding activity, NET (percentage) [22]: −16.4%; Binding activity, DOR (percentage) (DOR (δ-opioid receptor)): 9.5%; Binding activity, Beta3 (percentage) [23]: −15.8%; Binding activity, Beta1 (percentage) [24]: −14.1%
COc1cc(-c2[o+]c3cc(O)cc(O)c3cc2O[C@@H]2O[C@H](CO)[C@@H](O)[C@H](O)[C@H]2O)cc(OC)c1O [Mal-gluc] | −4.5 | −10.5 | −10.2 | 5.4 | −4.6 | −5.9 | 7.2 | 24.4 | −1.3 | −10.3 | −6.2 | 54 | 8.6 | 10.4 | 15.7 | 10.3 | −6.9 | 74.1 | 5.2 | −2 | Ki ([7]; secondary radioligand binding assay, read-out: calculated inhibitory constant (Ki), 5-HT1D): > 10 µM; Ki ([13]; secondary radioligand binding assay, read-out: calculated inhibitory constant (Ki), 5-HT3): 4.3 µM; Binding activity, Alpha2A (percentage) [15]: 7.3%; Binding activity, 5-HT2B (percentage) [16]: −13.8%; Binding activity, M3 (percentage) (M3 (muscarinic receptor)): 23.6%; Binding activity, 5-HT7 (percentage) [17]: −13.5%; Binding activity, D5 (percentage) (D5 (dopamine receptor)): −2%; Binding activity, Alpha2C (percentage) [18]: −11%; Binding activity, Beta2 (percentage) [19]: 1.9%; Binding activity, DAT (percentage) [20]: −18.2%; Binding activity, SERT (percentage) [21]: 7.8%; Binding activity, MOR (percentage) (MOR (µ-opioid receptor)): −5%; Binding activity, NET (percentage) [22]: −9.4%; Binding activity, DOR (percentage) (DOR (δ-opioid receptor)): −10.2%; Binding activity, Beta3 (percentage) [23]: −17.7%; Binding activity, Beta1 (percentage) [24]: −15.5%

Reference: publication PMC5797143, “Epigenetic modulation of inflammation and synaptic plasticity promotes resilience against stress in mice” (Nature Communications, 2018)
